Assay results as given in ChEMBL document CHEMBL2163222 (J Med Chem, 2012).
Calls of active or inactive are those of the source. No cut-off for these calls is given here.

Columns and labels:
IGROV-1 = test: Growth inhibition of human IGROV1 cells at 10 uM by NCI-60 cell inhibition assay; assay type: functional; conditions: read-out: GI
UACC-257 = test: Growth inhibition of human UACC257 cells at 10 uM by NCI-60 cell inhibition assay; assay type: functional; conditions: read-out: GI
UACC-62 = test: Growth inhibition of human UACC62 cells at 10 uM by NCI-60 cell inhibition assay; assay type: functional; conditions: read-out: GI
SK-MEL-28 = test: Growth inhibition of human SK-MEL-28 cells at 10 uM by NCI-60 cell inhibition assay; assay type: functional; conditions: read-out: GI
SK-MEL-2 = test: Growth inhibition of human SK-MEL-2 cells at 10 uM by NCI-60 cell inhibition assay; assay type: functional; conditions: read-out: GI
MDA-MB-435 = test: Growth inhibition of human MDA-MB-435 cells at 10 uM by NCI-60 cell inhibition assay; assay type: functional; conditions: read-out: GI
Malme-3M = test: Growth inhibition of human MALME-3M cells at 10 uM by NCI-60 cell inhibition assay; assay type: functional; conditions: read-out: GI
M14 = test: Growth inhibition of human M14 cells at 10 uM by NCI-60 cell inhibition assay; assay type: functional; conditions: read-out: GI
SNB-75 = test: Growth inhibition of human SNB75 cells at 10 uM by NCI-60 cell inhibition assay; assay type: functional; conditions: read-out: GI
SF-539 = test: Growth inhibition of human SF539 cells at 10 uM by NCI-60 cell inhibition assay; assay type: functional; conditions: read-out: GI
SNB-19 = test: Growth inhibition of human SNB19 cells at 10 uM by NCI-60 cell inhibition assay; assay type: functional; conditions: read-out: GI
KM12 = test: Growth inhibition of human KM12 cells at 10 uM by NCI-60 cell inhibition assay; assay type: functional; conditions: read-out: GI
SW-620 = test: Growth inhibition of human SW620 cells at 10 uM by NCI-60 cell inhibition assay; assay type: functional; conditions: read-out: GI
HCT-15 = test: Growth inhibition of human HCT15 cells at 10 uM by NCI-60 cell inhibition assay; assay type: functional; conditions: read-out: GI
HT-29 = test: Growth inhibition of human HT-29 cells at 10 uM by NCI-60 cell inhibition assay; assay type: functional; conditions: read-out: GI
HCT-116 = test: Growth inhibition of human HCT116 cells at 10 uM by NCI-60 cell inhibition assay; assay type: functional; conditions: read-out: GI
COLO 205 = test: Growth inhibition of human COLO205 cells at 10 uM by NCI-60 cell inhibition assay; assay type: functional; conditions: read-out: GI
HCC 2998 = test: Growth inhibition of human HCC2998 cells at 10 uM by NCI-60 cell inhibition assay; assay type: functional; conditions: read-out: GI
NCI-H522 = test: Growth inhibition of human NCI-H522 cells at 10 uM by NCI-60 cell inhibition assay; assay type: functional; conditions: read-out: GI
NCI-H460 = test: Growth inhibition of human NCI-H460 cells at 10 uM by NCI-60 cell inhibition assay; assay type: functional; conditions: read-out: GI
NCI-H322M = test: Growth inhibition of human NCI-H322M cells at 10 uM by NCI-60 cell inhibition assay; assay type: functional; conditions: read-out: GI
NCI-H226 = test: Growth inhibition of human NCI-H226 cells at 10 uM by NCI-60 cell inhibition assay; assay type: functional; conditions: read-out: GI
HOP-62 = test: Growth inhibition of human HOP62 cells at 10 uM by NCI-60 cell inhibition assay; assay type: functional; conditions: read-out: GI
HOP-92 = test: Growth inhibition of human HOP92 cells at 10 uM by NCI-60 cell inhibition assay; assay type: functional; conditions: read-out: GI
A549 = test: Growth inhibition of human A549/ATCC cells at 10 uM by NCI-60 cell inhibition assay; assay type: functional; conditions: read-out: GI
EKVX = test: Growth inhibition of human EKVX cells at 10 uM by NCI-60 cell inhibition assay; assay type: functional; conditions: read-out: GI
SR = test: Growth inhibition of human SR cells at 10 uM by NCI-60 cell inhibition assay; assay type: functional; conditions: read-out: GI
[1] = Growth inhibition of human […] cells at 10 uM by NCI-60 cell inhibition assay; assay type: functional; conditions: read-out: GI
MOLT-4 = test: Growth inhibition of human MOLT4 cells at 10 uM by NCI-60 cell inhibition assay; assay type: functional; conditions: read-out: GI
HL-60(TB) = test: Growth inhibition of human HL-60(TB) cells at 10 uM by NCI-60 cell inhibition assay; assay type: functional; conditions: read-out: GI
K562 = test: Growth inhibition of human K562 cells at 10 uM by NCI-60 cell inhibition assay; assay type: functional; conditions: read-out: GI
CCRF-CEM = test: Growth inhibition of human CCRF-CEM cells at 10 uM by NCI-60 cell inhibition assay; assay type: functional; conditions: read-out: GI
[2] = Stability in cell culture medium without serum assessed as compound recovery after 72 hrs; assay type: physicochemical; conditions: read-out: Stability
[3] = Inhibition of eIF2 protein expression in human U373 cells at 0.5 uM after 4 hrs by Western blotting method; assay type: functional, cell-based; conditions: U-373MG ATCC
U-373MG ATCC = test: Inhibition of eIF2 activity in human U373 cells at 0.5 uM after 4 hrs by Western blotting method; assay type: functional, cell-based
[4] = Inhibition of eIF2 protein expression in human Hs683 cells at 0.5 uM after 4 hrs by Western blotting method; assay type: functional, cell-based; conditions: Hs 683
[5] = Solubility of compound at pH 7.4; assay type: physicochemical; conditions: buffer, read-out: solubility
[6] = Cytostatic activity in human U373 cells at 0.4 uM assessed global growth ratio after 72 hrs by quantitative video microscopy; assay type: functional, U-373MG ATCC
[7] = Growth inhibition of human OE21 cells after 3 days by MTT assay; assay type: functional, cell-based; conditions: OE21, 72 h
OE33 = test: Growth inhibition of human OE33 cells after 3 days by MTT assay; assay type: functional, cell-based; conditions: OE33, 72 h
T47D = test: Growth inhibition of human T47D cells at 10 uM by NCI-60 cell inhibition assay; assay type: functional; conditions: read-out: GI
[8] = Growth inhibition of human Hs 578T cells at 10 uM by NCI-60 cell inhibition assay; assay type: functional; conditions: read-out: GI
MCF7 = test: Growth inhibition of human MCF7 cells at 10 uM by NCI-60 cell inhibition assay; assay type: functional; conditions: read-out: GI
PC-3 = test: Growth inhibition of human PC3 cells at 10 uM by NCI-60 cell inhibition assay; assay type: functional; conditions: read-out: GI
UO-31 = test: Growth inhibition of human UO31 cells at 10 uM by NCI-60 cell inhibition assay; assay type: functional; conditions: read-out: GI
CAKI-1 = test: Growth inhibition of human Caki1 cells at 10 uM by NCI-60 cell inhibition assay; assay type: functional; conditions: read-out: GI
ACHN = test: Growth inhibition of human ACHN cells at 10 uM by NCI-60 cell inhibition assay; assay type: functional; conditions: read-out: GI
A498 = test: Growth inhibition of human A498 cells at 10 uM by NCI-60 cell inhibition assay; assay type: functional; conditions: read-out: GI
786-0 = test: Growth inhibition of human 786-0 cells at 10 uM by NCI-60 cell inhibition assay; assay type: functional; conditions: read-out: GI
SK-OV-3 = test: Growth inhibition of human SKOV3 cells at 10 uM by NCI-60 cell inhibition assay; assay type: functional; conditions: read-out: GI
[9] = Growth inhibition of human NCI-ADR-RES cells at 10 uM by NCI-60 cell inhibition assay; assay type: functional; conditions: read-out: GI
T98G = test: cells; conditions: Homo sapiens, 72 h

## Cc1c2c(cc[n+]1Cc1ccccc1)c1ccc(OCc3ccccc3)cc1n2Cc1ccccc1.[Br-]
IGROV-1
  inhibition of growth at 10 µM: -65.1%
UACC-257
  inhibition of growth at 10 µM: -0.65%
UACC-62
  inhibition of growth at 10 µM: -87.1%
SK-MEL-28
  inhibition of growth at 10 µM: -56.5%
SK-MEL-2
  inhibition of growth at 10 µM: -36%
MDA-MB-435
  inhibition of growth at 10 µM: -93.8%
Malme-3M
  inhibition of growth at 10 µM: -73.6%
M14
  inhibition of growth at 10 µM: -87.9%
SNB-75
  inhibition of growth at 10 µM: -18%
SF-539
  inhibition of growth at 10 µM: -5.52%
SNB-19
  inhibition of growth at 10 µM: -13.3%
KM12
  inhibition of growth at 10 µM: -98.4%
SW-620
  inhibition of growth at 10 µM: -88.1%
HCT-15
  inhibition of growth at 10 µM: 39.2%
HT-29
  inhibition of growth at 10 µM: -48.6%
HCT-116
  inhibition of growth at 10 µM: -95.6%
COLO 205
  inhibition of growth at 10 µM: -82.3%
HCC 2998
  inhibition of growth at 10 µM: -81.8%
NCI-H522
  inhibition of growth at 10 µM: -47.1%
NCI-H460
  inhibition of growth at 10 µM: -87.5%
NCI-H322M
  inhibition of growth at 10 µM: -26.9%
NCI-H226
  inhibition of growth at 10 µM: -12%
HOP-62
  inhibition of growth at 10 µM: -70.9%
HOP-92
  inhibition of growth at 10 µM: -67.8%
A549
  inhibition of growth at 10 µM: 4.01%
EKVX
  inhibition of growth at 10 µM: -28.8%
SR
  inhibition of growth at 10 µM: -52.5%
[1]
  inhibition of growth at 10 µM: -21.6%
MOLT-4
  inhibition of growth at 10 µM: -51%
HL-60(TB)
  inhibition of growth at 10 µM: -54.1%
K562
  inhibition of growth at 10 µM: -25%
CCRF-CEM
  inhibition of growth at 10 µM: -16.2%
[2]
  remaining at 72 h: > 95%
[3]
  inhibition: Active
U-373MG ATCC
  inhibition: Active
[4]
  inhibition: Active
[5]
  solubility: 461 µM
[6]
  Ratio: 0.4
[7]
  IC50: 1300 nM
OE33
  IC50: 700 nM
T47D
  inhibition of growth at 10 µM: -4.02%
[8]
  inhibition of growth at 10 µM: -35.9%
MCF7
  inhibition of growth at 10 µM: -23.1%
PC-3
  inhibition of growth at 10 µM: -44.8%
UO-31
  inhibition of growth at 10 µM: -18.2%
CAKI-1
  inhibition of growth at 10 µM: -5.76%
ACHN
  inhibition of growth at 10 µM: 8.54%
A498
  inhibition of growth at 10 µM: -34.5%
786-0
  inhibition of growth at 10 µM: -87.4%
SK-OV-3
  inhibition of growth at 10 µM: 7.67%
[9]
  inhibition of growth at 10 µM: 65%
T98G
  IC50: 480 nM

## Cc1c2c(cc[n+]1Cc1ccccc1)c1ccc(OCC3CCCCC3)cc1n2CC1CCCCC1.[Br-]
IGROV-1
  inhibition of growth at 10 µM: -70.6%
UACC-257
  inhibition of growth at 10 µM: -92.4%
UACC-62
  inhibition of growth at 10 µM: -94%
SK-MEL-28
  inhibition of growth at 10 µM: -95.8%
SK-MEL-2
  inhibition of growth at 10 µM: -86.5%
MDA-MB-435
  inhibition of growth at 10 µM: -84.9%
Malme-3M
  inhibition of growth at 10 µM: -70.3%
M14
  inhibition of growth at 10 µM: -84.6%
SNB-75
  inhibition of growth at 10 µM: -87.3%
SF-539
  inhibition of growth at 10 µM: -85.2%
SNB-19
  inhibition of growth at 10 µM: -90.7%
KM12
  inhibition of growth at 10 µM: -99.9%
SW-620
  inhibition of growth at 10 µM: -96.6%
HCT-15
  inhibition of growth at 10 µM: -81.7%
HT-29
  inhibition of growth at 10 µM: -79%
HCT-116
  inhibition of growth at 10 µM: -98.3%
COLO 205
  inhibition of growth at 10 µM: -95.2%
HCC 2998
  inhibition of growth at 10 µM: -93.2%
NCI-H522
  inhibition of growth at 10 µM: -84.5%
NCI-H460
  inhibition of growth at 10 µM: -93.4%
NCI-H322M
  inhibition of growth at 10 µM: -83.2%
NCI-H226
  inhibition of growth at 10 µM: -89.1%
HOP-62
  inhibition of growth at 10 µM: -95%
HOP-92
  inhibition of growth at 10 µM: -85.6%
A549
  inhibition of growth at 10 µM: -93.1%
EKVX
  inhibition of growth at 10 µM: -75.5%
SR
  inhibition of growth at 10 µM: -57.6%
[1]
  inhibition of growth at 10 µM: -45.2%
MOLT-4
  inhibition of growth at 10 µM: -64.5%
HL-60(TB)
  inhibition of growth at 10 µM: -53.4%
K562
  inhibition of growth at 10 µM: -45.9%
CCRF-CEM
  inhibition of growth at 10 µM: -36.2%
[2]
  remaining at 72 h: > 95%
[3]
  inhibition: inactive
U-373MG ATCC
  inhibition: inactive
[4]
  inhibition: inactive
[5]
  solubility: 123 µM
[6]
  Ratio: 0.25
[7]
  IC50: 420 nM
OE33
  IC50: 370 nM
T47D
  inhibition of growth at 10 µM: -74.1%
[8]
  inhibition of growth at 10 µM: -36.2%
MCF7
  inhibition of growth at 10 µM: -92.3%
PC-3
  inhibition of growth at 10 µM: -75.8%
UO-31
  inhibition of growth at 10 µM: -93.1%
CAKI-1
  inhibition of growth at 10 µM: -92.5%
ACHN
  inhibition of growth at 10 µM: -100%
A498
  inhibition of growth at 10 µM: -97.4%
786-0
  inhibition of growth at 10 µM: -91.3%
SK-OV-3
  inhibition of growth at 10 µM: -53.4%
[9]
  inhibition of growth at 10 µM: 31.5%
T98G
  IC50: 160 nM
